Data: patent US9427458B2, “Methods for inhibiting cancer cell proliferation” (Consejo Nacional de Investigaciones Cientificas y Tecnicas, …, priority 2010, dated 2016)
Entries after “also recorded” stand apart in the source; their conditions may differ.

Columns and labels:
[1] = system: Stat3; assay: Stat3 phosphorylation and nuclear translocation in T47D cells; type: cell-based, human; conditions: MPA treatment of T47D cells
Protocol: (§1) Lysates were prepared from cells subjected to the different treatments and proteins were subjected to SDS-PAGE as previously described (21). Membranes were immunoblotted with the antibodies detailed in each experiment. When phospho(p)-protein antibodies were used, filters were reprobed with total protein antibodies. Signal intensities of pErbB-2, pStat3, pSrc, pPR, pJak1, and pJak2 bands were analyzed by densitometry and normalized to total protein bands. Similarly, signal intensities of PR, cyclin D1, Stat3, and ErbB-2 bands were normalized to actin or β tubulin bands. […] The NEPER Nuclear and Cytoplasmic Extraction Reagents technique (Pierce Biotechnology) was performed as per manufacturer's instructions. Nuclear association between ErbB-2 and Stat3 was studied by performing coimmunoprecipitation experiments using 200 μg of nuclear protein lysates as described (22).
(§2) Cells grown on glass coverslips were fixed and permeabilized in ice-cold methanol and were then blocked with PBS 1% BSA. ErbB-2 was localized using either a rabbit polyclonal (C-18) or a mouse monoclonal (F-11) ErbB-2 antibody (Santa Cruz Biotechnology) and Stat3 was detected using a mouse monoclonal antibody (124H6, Cell Signaling), followed by incubation with a goat anti-rabbit IgG-Alexa 488 (Molecular Probes, Eugene, Oreg.) secondary antibody for ErbB-2 (C-18) and with a rhodamine conjugated goat anti-mouse secondary antibody (Jackson ImmunoResearch Laboratories, West Grove, Pa.) for both ErbB2 (F-11) and Stat3. Negative controls were carried out using PBS instead of primary antibodies, or 5× competitive peptide (Santa Cruz Biotechnology) when ErbB-2 (C-18) was used. When cells were transfected with hErbB-2ΔNLS, green fluorescent protein from this expression vector was visualized by direct fluorescence imaging. […] FIGS. 2A, 3B and C, illustrate a few cells representative of the ones examined. Cells were analyzed using a Nikon Eclipse E800 confocal laser microscopy system (22).

[2] = system: Stat3; assay: Stat3 phosphorylation and nuclear translocation in C4HD cells; type: cell-based, mouse
Protocol: as §1
siRNAs targeting ErbB-2, Stat3, and Pr were synthesized by Dharmacon, Inc (Lafayatte, Colo.) (ErbB-2siRNA: 5′GAUGGUGCUUACUCAUUGA3′ (SEQ ID NO:8), designed to specifically knockdown mouse ErbB2 but not human ErbB-2; Stat3siRNA: 5′[…]3′ (SEQ ID NO:9) targets mouse Stat3; and 5′[…]3′ (SEQ ID NO:10) targets human Stat3; PRsiRNA: 5′[…]3′(SEQ ID NO:11)). […] Transfection of siRNAs duplexes was performed by using the DharmaFECT transfection reagent following the manufacturer's direction for 3 days. For reconstitution experiments cotransfection of 25 nM ErbB-2 siRNA with 2 μg expression vectors was performed using DharmaFECT Duo transfection reagent (Dharmacon).
as §2

[3] = system: cyclin D1 promoter; assay: Human cyclin D1 promoter luciferase reporter in T47D cells; type: cell-based; conditions: MPA 24 h
From the text: The luciferase reporter plasmid downstream the cyclin D1 human promoter region (−1745 cyclin D1-luc), and constructs truncated at positions −963, −261, −141, were kindly provided by Dr. R. Pestell (Northwestern University Medical School, Chicago, Ill.). These constructs were generated by truncation of the 1745-bp length promoter in order to sequentially exclude 5′ regions of the promoter. The −963 cyclin D1-luc construct excludes one GAS site (−984), the −261 cyclin D1-luc excludes three GAS sites (−984, −568 and −475) and the −141 cyclin D1-luc excludes four GAS sites (−984, −568, −475 and −239). The empty vector pA3 Luc was also provided by Dr. R. Pestell. The luciferase reporter plasmid containing four copies of the m67 high-affinity binding site (p4×m67-tk-luc) and the pTATA-tk-Luc reporter lacking the m67 insertion were a gift from Dr J. Darnell (The Rockefeller University, New York, N.Y.). The Renilla luciferase expression plasmid RLCMV was obtained from Promega (Madison, Wis.). […] Triplicate samples were analyzed for each datum point. Differences between experimental groups were analyzed by ANOVA followed by Tukey test between groups.

[4] = system: ErbB-2; assay: ErbB-2 tyrosine phosphorylation by Western blot in C4HD cells; type: cell-based, mouse; conditions: MPA treatment of C4HD cells
Protocol: (§3) Primary cultures of epithelial cells from C4HD tumors were performed as described (2). T47D cells were obtained from American Type Culture Collection and T47D-Y cells were a generous gift from Dr. K. Horwitz (Denver, Colo.). To evaluate the effects of the pharmacological inhibitors on MPA-induced proteins phosphorylation or cyclin D1 expression, cells were preincubated for 90 min with RU486, PP2, Tyrphostin AG825 or Jak inhibitor I before addition of MPA. Cell proliferation was evaluated by [3H]-thymidine incorporation assay and cell cycle distribution was analyzed by flow cytometry, as described (22).
as §1, with “Nuclear association between ErbB-2 and Stat3 was studied by performing coimmunoprecipitation experiments using 200 μg of nuclear protein lysates as described (22).” left out

[5] = system: ErbB-2; assay: ErbB-2 tyrosine phosphorylation by Western blot in T47D cells; type: cell-based, human; conditions: MPA
Protocol: as §3, §1

[6] = system: ErbB-2; assay: ErbB-2 cellular localization (subcellular fractionation/immunoblot, confocal microscopy) in C4HD cells; type: cell-based, mouse; conditions: MPA treatment of C4HD cells, 15 to 60 min
Protocol: (§4) Lysates were prepared from cells subjected to the different treatments and proteins were subjected to SDS-PAGE as previously described (21). Membranes were immunoblotted with the antibodies detailed in each experiment. When phospho(p)-protein antibodies were used, filters were reprobed with total protein antibodies. Signal intensities of pErbB-2, pStat3, pSrc, pPR, pJak1, and pJak2 bands were analyzed by densitometry and normalized to total protein bands. Similarly, signal intensities of PR, cyclin D1, Stat3, and ErbB-2 bands were normalized to actin or β tubulin bands. […]
(§5) Cells grown on glass coverslips were fixed and permeabilized in ice-cold methanol and were then blocked with PBS 1% BSA. ErbB-2 was localized using either a rabbit polyclonal (C-18) or a mouse monoclonal (F-11) ErbB-2 antibody (Santa Cruz Biotechnology) and Stat3 was detected using a mouse monoclonal antibody (124H6, Cell Signaling), followed by incubation with a goat anti-rabbit IgG-Alexa 488 (Molecular Probes, Eugene, Oreg.) secondary antibody for ErbB-2 (C-18) and with a rhodamine conjugated goat anti-mouse secondary antibody (Jackson ImmunoResearch Laboratories, West Grove, Pa.) for both ErbB2 (F-11) and Stat3. […] When cells were transfected with hErbB-2ΔNLS, green fluorescent protein from this expression vector was visualized by direct fluorescence imaging. […]

[7] = system: cyclin D1 promoter; assay: Human cyclin D1 promoter luciferase reporter in C4HD cells; type: cell-based, mouse; conditions: MPA 24 h
From the text: The luciferase reporter plasmid downstream the cyclin D1 human promoter region (−1745 cyclin D1-luc), and constructs truncated at positions −963, −261, −141, were kindly provided by Dr. R. Pestell (Northwestern University Medical School, Chicago, Ill.). These constructs were generated by truncation of the 1745-bp length promoter in order to sequentially exclude 5′ regions of the promoter. The −963 cyclin D1-luc construct excludes one GAS site (−984), the −261 cyclin D1-luc excludes three GAS sites (−984, −568 and −475) and the −141 cyclin D1-luc excludes four GAS sites (−984, −568, −475 and −239). The empty vector pA3 Luc was also provided by Dr. R. Pestell. The luciferase reporter plasmid containing four copies of the m67 high-affinity binding site (p4×m67-tk-luc) and the pTATA-tk-Luc reporter lacking the m67 insertion were a gift from Dr J. Darnell (The Rockefeller University, New York, N.Y.). The Renilla luciferase expression plasmid RLCMV was obtained from Promega (Madison, Wis.). Dominant negative Stat3 expression vector, Stat3Y705-F, which carries a tyrosine to phenylalanine substitution at codon 705 that reduces phosphorylation on tyrosine of the wild-type Stat3 protein, therefore inhibiting both dimerization and DNA binding of Stat3 (6,7,16) was kindly provided by Dr J. Darnell (New York, USA). The empty pcDNA3.1 vector was also a gift of Dr J. Darnell. Human wild-type ErbB-2 expression vector (hErbB-2WT) as well as the empty pMe18SM vector were a gift from by Dr. T. Yamamoto (University of Tokyo, Japan) (1). The GFP-tagged human ErbB-2 mutant which lacks the putative nuclear localization signal sequence (aa 676-KRRQQKIRKYTMRR-689) (SEQ ID NO:3), resulting in the sequence of KLM at the deletion junction (hErbB-2ΔNLS), was generously provided by Dr. M. C. Hung (The University of Texas M.D. Anderson Cancer Center, Houston, Tex.) (Giri et al., 2005). The empty pEGFP-N1 vector was obtained from BD Biosciences Clontech (Palo Alto, Calif.). The plasmid encoding the human wild-type hPR-B was kindly provided by Dr. K. Horwitz. In experiments assessing MPA capacity to induce the transcriptional activation of Stat3, C4HD and T47D cells were transiently transfected for 48 h with 1 μg of −1745 cyclin D1-luc reporter plasmid or the truncated −963, −261 and −141 constructs, or with 1 μg p4×m67-tk-luc and 10 ng of RL-CMV used to correct variations in transfection efficiency. As control, cells were transfected with 1 μg of either the pA3 Luc or pTATA-tk-Luc reporters. Cells were cotransfected with 2 μg of Stat3Y705-F when indicated. Total amount of transfected DNA was standardized by adding the empty pcDNA3.1 vector. […] Triplicate samples were analyzed for each datum point. Differences between experimental groups were analyzed by ANOVA followed by Tukey test between groups.

[8] = system: ErbB-2; assay: ErbB-2 cellular localization (subcellular fractionation/immunoblot, confocal microscopy) in T47D cells; type: cell-based, human; conditions: MPA treatment of T47D cells, 15 to 60 min
Protocol: as §4, §5

[9] = system: cyclin D1; assay: Cyclin D1 protein levels by Western blot in C4HD cells; type: cell-based, mouse; conditions: MPA treatment of C4HD cells
Protocol: as §3
as §1, with “Nuclear association between ErbB-2 and Stat3 was studied by performing coimmunoprecipitation experiments using 200 μg of nuclear protein lysates as described (22).” left out

[10] = system: mouse cyclin D1 promoter; assay: ChIP of Stat3 and ErbB-2 on the mouse cyclin D1 promoter in C4HD cells; type: cell-based; conditions: MPA 30 min
Protocol: (§6) ChIP was performed as described elsewhere (Hawthorne et al., 2005) with minor modifications. Briefly, chromatin was sonicated to an average of about 500 bp. Sonicated chromatin was then immunoprecipitated using 4 μg of either an anti-ErbB-2 or an anti-Stat3 antibody and rabbit IgG as control. The IP was collected using Protein A beads (Upstate Biotechnology, Lake Placid, N.Y.), which were washed repeatedly to remove nonspecific DNA binding. The chromatin was eluted from the beads and crosslinks were removed overnight at 65° C. DNA was then purified and quantified using real-time PCR. For sequential ChIP experiments, Stat3 immunoprecipitates were eluted with DTT and then subjected to a second round of immunoprecipitation with ErbB-2 antibody or with IgG.
(§7) ChIP DNA was amplified by real-time PCR (qPCR), performed with an ABI Prism 7500 sequence detector using SYBR green PCR master mix (Applied Biosystems, Foster City, Calif.). The primers used were as follows: 5′-TTCCGGTGGTCTGGTTCCT-3′ (SEQ ID NO:12) and 5′-[…]-3′(SEQ ID NO:13) designed to amplify a region of the mouse cyclin D1 promoter containing two GAS sites (−971 and −874), 5′-[…]-3′(SEQ ID NO:14) and 5′-[…]-3′ (SEQ ID NO:15) designed to amplify a region of the human cyclin D1 promoter containing one GAS site (−984). These primers were designed with “Primer Express” real-time PCR primer design software (Applied Biosystems). […]

[11] = system: human cyclin D1 promoter; assay: ChIP of Stat3 and ErbB-2 on the human cyclin D1 promoter in T47D cells; type: cell-based; conditions: MPA 30 min, primers flanking the −984 GAS site
Protocol: as §6, §7

[12] = versus cells untreated with MPA

CC(=O)O[C@]1(C(C)=O)CC[C@H]2[C@@H]3C[C@H](C)C4=CC(=O)CC[C@]4(C)[C@H]3CC[C@@]21C [MPA, Medroxyprogesterone acetate]
Stat3 nuclear translocation ([1]; 30 and 60 min): induced nuclear translocation of Stat3; also recorded: present at the nuclear compartment and strongly phosphorylated at Tyr 705 | nuclear colocalization of ErbB-2 and Stat3 ([1]; 30 min, confocal): strong nuclear colocalization | Stat3 nuclear translocation ([2]; MPA treatment of C4HD cells, 30 and 60 min): induced nuclear translocation of Stat3; also recorded: present at the nuclear compartment and strongly phosphorylated at Tyr 705 | nuclear colocalization of ErbB-2 and Stat3 ([2]; MPA treatment of C4HD cells, 30 min, confocal): strong nuclear colocalization | increase in cyclin D1 promoter activity [3, 12]: 3 fold | ErbB-2 phosphorylation at Tyr 1272 and Tyr 927 [4]: induces a rapid phosphorylation | ErbB-2 phosphorylation at Tyr 1222 or Tyr 877 ([5]; PR-null T47D cells (T47D-Y)): no effect | ErbB-2 phosphorylation at Tyr 1222 and Tyr 877 ([5]; T47D-Y cells transfected with human PR-B (T47D-Y-PR-B)): markedly enhanced | ErbB-2 nuclear translocation [6]: resulted in ErbB-2 nuclear localization; also recorded: induced a strong ErbB-2 protein nuclear translocation | increase in cyclin D1 promoter activity [7, 12]: 3 fold | ErbB-2 nuclear translocation [8]: resulted in ErbB-2 nuclear localization; also recorded: induced a strong ErbB-2 protein nuclear translocation | cyclin D1 protein levels [9]: significant increase | binding of nuclear Stat3 and ErbB-2 to the mouse cyclin D1 promoter [10]: significant and specific | occupancy by Stat3 and ErbB-2 of the human cyclin D1 promoter [11]: striking increase

Stat3Y705-F: Dominant negative Stat3 expression vector, tyrosine to phenylalanine substitution at codon 705
MPA-induced cyclin D1 promoter activation ([3]; pretreatment or cotransfection): absolutely inhibited | MPA-induced cyclin D1 promoter activation ([7]; pretreatment or cotransfection): absolutely inhibited

5′GAUGGUGCUUACUCAUUGA3′ (other strand missing, further chemistry not given here) [ErbB-2 siRNAs, siRNA designed to specifically knockdown mouse ErbB2 but not human ErbB-2]
MPA-induced Stat3 phosphorylation ([2]; C4HD cells transfected with siRNAs to knock down mouse ErbB-2): inhibited
